Measurements from patent US20150105252A1, “SUBSTITUTED PYRAZOLES AS HERBICIDES” (E I DU PONT DE NEMOURS AND COMPANY, priority 2013, published 2015).

Legend:
pigweed = assay: Test C postemergence; assay type: in vivo, Amaranthus retroflexus; conditions: for Plant response rating (scale of 0 to 100 where 0 is no effect and 100 is complete control), Pigweed: Postemergence, 31 g ai/ha, visually evaluated after 13 to 15 days; for Pigweed plant response rating / Plant response rating, Pigweed: postemergence; for Pigweed plant response rating: 62 g ai/ha, scale 0 to 100
Outline: (§1)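 Visual rating, 0–100 scale (0 no effect, 100 complete control), vs untreated controls after 13–15 d greenhouse. Pre: seeds in loam/sand, treated at sowing. Post: plants in peat-based mix, 1- to 4-leaf (2–18 cm). Solvent + surfactant formulation, non-phytotoxic.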

morningglory [1] = assay: Test A preemergence; assay type: in vivo, Ipomoea spp.; conditions: preemergence
Outline: (§2)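 Pre- and postemergence greenhouse test; loam+sand; cpd in non-phytotox. solvent/surfactant; post at 1–2 leaf, 2–10 cm; visual score ~10 d, 0 = none, 100 = complete control.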

corn [2] = assay: Test A preemergence; assay type: in vivo, Zea mays; conditions: preemergence
Outline: as §2

barnyardgrass = assay: Test B flood; assay type: in vivo, Echinochloa crus-galli; conditions: 250 g ai/ha, visual rating on 0 to 100 scale (0 no effect, 100 complete control), 13 to 15 days
Outline: (§3)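 2-leaf plants; pots flooded 3 cm over soil; compound added to paddy water, depth kept constant. Greenhouse 13–15 d. Visual rating vs controls, 0–100 scale (100 = complete control); dash = no result.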

ducksalad = assay: Test B flood; assay type: in vivo, Heteranthera limosa; conditions: 250 g ai/ha, visual rating on 0 to 100 scale (0 no effect, 100 complete control), 13 to 15 days
Outline: as §3

crabgrass, large = assay: Test A preemergence; assay type: in vivo, Digitaria sanguinalis; conditions: preemergence
Outline: as §2

ryegrass, Italian = assay: Test C preemergence; assay type: in vivo, Lolium multiflorum; conditions: for Ryegrass, Italian plant response rating / Plant response rating, Ryegrass, Italian: preemergence; for Plant response rating, Ryegrass, Italian: 125 g ai/ha, scale 0 to 100, 0 = no effect, 100 = complete control
Outline: as §1

ragweed = assay: Test C postemergence; assay type: in vivo, Ambrosia elation; conditions: for Plant response rating (scale of 0 to 100 where 0 is no effect and 100 is complete control), Ragweed: Postemergence, 31 g ai/ha, visually evaluated after 13 to 15 days
Outline: as §1

sedge, umbrella = assay: Test B flood; assay type: in vivo, Cyperus difformis; conditions: 250 g ai/ha, visual rating on 0 to 100 scale (0 no effect, 100 complete control), 13 to 15 days
Outline: as §3

waterhemp = assay: Test C postemergence; assay type: in vivo, Amaranthus rudis; conditions: for Plant response rating (scale of 0 to 100 where 0 is no effect and 100 is complete control), Waterhemp: Postemergence, 31 g ai/ha, visually evaluated after 13 to 15 days; for Waterhemp plant response rating / Plant response rating, Waterhemp: postemergence; for Waterhemp plant response rating: scale 0 to 100
Outline: as §1

galium = assay: Test C postemergence; assay type: in vivo, Galium aparine; conditions: for Plant response rating (scale of 0 to 100 where 0 is no effect and 100 is complete control), Galium: Postemergence, 31 g ai/ha, visually evaluated after 13 to 15 days; for Galium plant response rating / Plant response rating, Galium: postemergence; for Galium plant response rating: 62 g ai/ha, scale 0 to 100
Outline: as §1

corn [3] = assay: Test C postemergence; assay type: in vivo, Zea mays; conditions: for Plant response rating (scale of 0 to 100 where 0 is no effect and 100 is complete control), Corn: Postemergence, 31 g ai/ha, visually evaluated after 13 to 15 days; for Corn plant response rating / Plant response rating, Corn: postemergence; for Corn plant response rating: 62 g ai/ha, scale 0 to 100
Outline: as §1

velvetleaf = assay: Test A preemergence; assay type: in vivo, Abutilon theophrasti; conditions: preemergence
Outline: as §2

morningglory [4] = assay: Test C postemergence; assay type: in vivo, Ipomoea coccinea; conditions: for Plant response rating (scale of 0 to 100 where 0 is no effect and 100 is complete control), Morningglory: Postemergence, 31 g ai/ha, visually evaluated after 13 to 15 days; for Morningglory plant response rating / Plant response rating, Morningglory: postemergence; for Morningglory plant response rating: 62 g ai/ha, scale 0 to 100
Outline: as §1

foxtail, giant = assay: Test A postemergence; assay type: in vivo, Setaria faberii
Outline: as §2

[5] = 250 g ai/ha, scale 0 to 100 (0 no effect, 100 complete control)
[6] = 125 g ai/ha, scale 0 to 100, 0 no effect, 100 complete control
[7] = 125 g ai/ha, visual injury, 0 to 100 scale, approx. 10 days
[8] = 500 g ai/ha, visual injury after approx. 10 days, 0 to 100 scale (0 no effect, 100 complete control)
[9] = 31 g ai/ha, visual rating, scale 0 to 100 (0 no effect, 100 complete control), 13 to 15 days
[10] = 62 g ai/ha, scale 0 to 100 (0 no effect, 100 complete control), 13 to 15 days
[11] = postemergence, 250 g ai/ha, scale 0 to 100 (0 no effect, 100 complete control)
[12] = postemergence, 125 g ai/ha, scale 0 to 100, 0 no effect, 100 complete control
[13] = Postemergence, 500 g ai/ha, 0 to 100 scale (0 no effect, 100 complete control)
[14] = postemergence, 125 g ai/ha, about 10 days, visual rating on 0 to 100 scale (0 no effect, 100 complete control)
[15] = 125 g ai/ha, visual injury approx. 10 days after treatment

CCONC(=O)c1cc(CC)n(Cc2ccnc(OC(F)F)c2)n1 [Compound 131]
Plant response rating (scale of 0 to 100 where 0 is no effect and 100 is complete control), Pigweed (pigweed): 35
Pigweed plant response rating (pigweed): 65
Plant response rating, Pigweed (pigweed; [5]): 98
Plant response rating, Pigweed (pigweed; [6]): 90
Morningglory plant response rating (morningglory [1]; [7]): 100
Morningglory plant response rating (morningglory [1]; [8]): 100
Corn plant response rating (corn [2]; [7]): 60
Corn plant response rating (corn [2]; [8]): 90
Plant response rating, Barnyardgrass (barnyardgrass): 50
Plant response rating, Ducksalad (ducksalad): 90
Crabgrass, Large plant response rating (crabgrass, large; [7]): 100
Crabgrass, Large plant response rating (crabgrass, large; [8]): 100
Plant response rating (scale of 0 to 100), Ryegrass, Italian (ryegrass, Italian; Preemergence, 250 g ai/ha): 95
Ryegrass, Italian plant response rating (ryegrass, Italian; [9]): 15
Ryegrass, Italian plant response rating (ryegrass, Italian; [10]): 55
Plant response rating, Ryegrass, Italian (ryegrass, Italian; 13 to 15 days): 85
Plant response rating (scale of 0 to 100 where 0 is no effect and 100 is complete control), Ragweed (ragweed): 5
Ragweed plant response rating (ragweed; postemergence, 62 g ai/ha, scale 0 to 100): 30
Plant response rating, Ragweed (ragweed; [11]): 85
Plant response rating, Ragweed (ragweed; [12]): 60
Plant response rating, Sedge, Umbrella (sedge, umbrella): 90
Plant response rating (scale of 0 to 100 where 0 is no effect and 100 is complete control), Waterhemp (waterhemp): 55
Waterhemp plant response rating (waterhemp; 62 g ai/ha): 55
Plant response rating, Waterhemp (waterhemp; [5]): 80
Plant response rating, Waterhemp (waterhemp; [6]): 65
Plant response rating (scale of 0 to 100 where 0 is no effect and 100 is complete control), Galium (galium): 45
Galium plant response rating (galium): 55
Plant response rating, Galium (galium; [5]): 70
Plant response rating, Galium (galium; [6]): 50
Plant response rating (scale of 0 to 100 where 0 is no effect and 100 is complete control), Corn (corn [3]): 5
Corn plant response rating (corn [3]): 5
Plant response rating, Corn (corn [3]; [5]): 50
Plant response rating, Corn (corn [3]; [6]): 5
Velvetleaf plant response rating (velvetleaf; [7]): 90
Velvetleaf plant response rating (velvetleaf; [8]): 100
Plant response rating (scale of 0 to 100 where 0 is no effect and 100 is complete control), Morningglory (morningglory [4]): 35
Morningglory plant response rating (morningglory [4]): 55
Plant response rating, Morningglory (morningglory [4]; [5]): 70
Plant response rating, Morningglory (morningglory [4]; [6]): 65
Foxtail, Giant plant response rating (foxtail, giant; [13]): 90
Foxtail, Giant plant response rating (foxtail, giant; [14]): 80

O=C(NC1CC1)c1cc(CCCl)n(Cc2ccnc(C(F)(F)F)c2)n1 [Compound 144]
Plant response rating (scale of 0 to 100 where 0 is no effect and 100 is complete control), Pigweed (pigweed): 65
Pigweed plant response rating (pigweed): 75
Plant response rating, Pigweed (pigweed; [5]): 95
Plant response rating, Pigweed (pigweed; [6]): 85
Morningglory plant response rating (0 to 100 scale) (morningglory [1]; [15]): 80
Morningglory plant response rating (morningglory [1]; [8]): 100
Corn plant response rating (0 to 100 scale) (corn [2]; [15]): 10
Corn plant response rating (corn [2]; [8]): 80
Plant response rating, Barnyardgrass (barnyardgrass): 30
Plant response rating, Ducksalad (ducksalad): 95
Crabgrass, Large plant response rating (0 to 100 scale) (crabgrass, large; [15]): 100
Crabgrass, Large plant response rating (crabgrass, large; [8]): 100
Ryegrass, Italian plant response rating (ryegrass, Italian; [9]): 5
Ryegrass, Italian plant response rating (ryegrass, Italian; [10]): 30
Plant response rating, Ryegrass, Italian (ryegrass, Italian; 13 to 15 days): 85
Ryegrass, Italian plant response rating (ryegrass, Italian; 250 g ai/ha, scale 0 to 100, 0 is no effect, 100 is complete control): 90
Plant response rating (scale of 0 to 100 where 0 is no effect and 100 is complete control), Ragweed (ragweed): 10
Plant response rating, Ragweed (ragweed; [11]): 75
Plant response rating, Ragweed (ragweed; [12]): 35
Plant response rating, Sedge, Umbrella (sedge, umbrella): 95
Plant response rating (scale of 0 to 100 where 0 is no effect and 100 is complete control), Waterhemp (waterhemp): 65
Plant response rating, Waterhemp (waterhemp; [5]): 75
Waterhemp plant response rating (waterhemp): 75
Plant response rating (scale of 0 to 100 where 0 is no effect and 100 is complete control), Galium (galium): 40
Galium plant response rating (galium): 55
Plant response rating, Galium (galium; [5]): 85
Plant response rating, Galium (galium; [6]): 70
Plant response rating (scale of 0 to 100 where 0 is no effect and 100 is complete control), Corn (corn [3]): 5
Corn plant response rating (corn [3]): 10
Plant response rating, Corn (corn [3]; [5]): 25
Plant response rating, Corn (corn [3]; [6]): 15
Velvetleaf plant response rating (0 to 100 scale) (velvetleaf; [15]): 50
Velvetleaf plant response rating (velvetleaf; [8]): 100
Plant response rating (scale of 0 to 100 where 0 is no effect and 100 is complete control), Morningglory (morningglory [4]): 35
Morningglory plant response rating (morningglory [4]): 40
Plant response rating, Morningglory (morningglory [4]; [5]): 98
Plant response rating, Morningglory (morningglory [4]; [6]): 85
Foxtail, Giant plant response rating (foxtail, giant; [13]): 90
Foxtail, Giant plant response rating (foxtail, giant; [14]): 90
